Results on two compounds are retold here after ChEMBL document CHEMBL2073918, “Effect of modulators on the ATPase activity and vanadate nucleotide trapping of human P-glycoprotein” (Biochem Pharmacol, 1998).

Series [1] deals with T1, ATP-dependent translocase ABCB1 (Homo sapiens, UniProt P08183). In words: TP_TRANSPORTER: inhibition of ATPase activity (Verapamil) in membranes from CEM/VLB100 cells. The class given is functional, cell membranes, Membrane.
In series [2] the target is T1, ATP-dependent translocase ABCB1. In words: TP_TRANSPORTER: ATP hydrolysis in membranes from CEM/VLB100 cells. The class given is functional, cell membranes, Membrane.

T1 sequence (P08183 whole entry): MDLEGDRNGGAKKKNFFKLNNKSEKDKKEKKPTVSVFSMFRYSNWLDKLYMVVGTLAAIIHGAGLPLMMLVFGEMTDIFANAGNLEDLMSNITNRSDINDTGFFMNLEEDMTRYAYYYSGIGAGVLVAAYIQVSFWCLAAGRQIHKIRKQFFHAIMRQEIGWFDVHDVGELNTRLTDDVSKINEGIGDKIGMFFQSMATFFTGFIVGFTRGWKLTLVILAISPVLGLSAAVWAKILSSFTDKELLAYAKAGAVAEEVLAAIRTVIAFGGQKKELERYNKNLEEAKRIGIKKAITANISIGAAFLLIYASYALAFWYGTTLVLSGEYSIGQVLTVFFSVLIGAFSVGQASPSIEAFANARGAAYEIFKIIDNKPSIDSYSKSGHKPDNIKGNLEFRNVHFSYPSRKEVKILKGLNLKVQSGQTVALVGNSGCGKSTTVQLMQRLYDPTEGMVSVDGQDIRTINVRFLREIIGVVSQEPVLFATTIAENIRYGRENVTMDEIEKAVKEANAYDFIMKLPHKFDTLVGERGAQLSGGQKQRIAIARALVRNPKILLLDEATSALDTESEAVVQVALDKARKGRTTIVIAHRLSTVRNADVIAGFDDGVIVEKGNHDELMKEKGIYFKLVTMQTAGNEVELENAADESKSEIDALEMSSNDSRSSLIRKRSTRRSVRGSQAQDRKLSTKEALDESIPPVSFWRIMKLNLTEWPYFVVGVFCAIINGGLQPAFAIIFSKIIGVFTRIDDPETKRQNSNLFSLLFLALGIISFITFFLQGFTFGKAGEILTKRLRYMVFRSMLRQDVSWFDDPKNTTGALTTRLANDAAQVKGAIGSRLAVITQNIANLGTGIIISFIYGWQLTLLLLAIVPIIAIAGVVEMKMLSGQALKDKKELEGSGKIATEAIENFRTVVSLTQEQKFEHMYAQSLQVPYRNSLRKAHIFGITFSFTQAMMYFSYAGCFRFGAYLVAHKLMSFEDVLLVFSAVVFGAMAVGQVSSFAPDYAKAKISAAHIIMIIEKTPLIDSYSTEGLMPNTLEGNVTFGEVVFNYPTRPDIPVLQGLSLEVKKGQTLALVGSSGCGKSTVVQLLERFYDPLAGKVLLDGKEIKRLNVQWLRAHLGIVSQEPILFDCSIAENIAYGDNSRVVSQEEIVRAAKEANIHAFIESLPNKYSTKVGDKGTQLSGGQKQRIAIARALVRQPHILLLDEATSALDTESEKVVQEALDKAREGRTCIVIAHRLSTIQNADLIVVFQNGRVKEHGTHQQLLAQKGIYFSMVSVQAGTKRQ

Compound `COC(=O)[C@@H]1C2CC3c4[nH]c5ccccc5c4CCN3CC2CC[C@@H]1OC(=O)c1cc(OC)c(OC)c(OC)c1` (some centres not stated) [TRIMETHOXYBENZOYLYOHIMBINE] registered a Ki in series [1] of 2100 nM.

As for `CCC12C=CCN3CC[C@@]4(c5ccc(OC)cc5N(C)[C@H]4[C@@](O)(C(=O)OC)[C@@H]1OC(C)=O)[C@@H]32` (some centres not stated) [VINDOLINE], the Activity result in series [2] is “is not a substrate [-]”.
